Test results from PMC7271024, “N1-Benzofused Modification of Fluoroquinolones Reduces Activity Against Gram-Negative Bacteria” (ACS Omega, 2020).
Values after ≈ are worked out from the molar mass of the structure shown.

Tests used:
K. pneumoniae M6 = experiment: MIC, microdilution broth method; assay type: cell-based, Klebsiella pneumoniae; conditions: for potentiation of MIC by PMBN: MIC –PMBN vs +PMBN; for MIC: Klebsiella pneumoniae, ciprofloxacin-sensitive strain (S)
A. baumannii ATCC 17978 = experiment: MIC, microdilution broth method; assay type: cell-based, Acinetobacter baumannii; conditions: for MIC: Acinetobacter baumannii, ciprofloxacin-sensitive strain (S); for potentiation of MIC by PMBN: MIC –PMBN vs +PMBN
A. baumannii AYE = experiment: MIC, microdilution broth method; assay type: cell-based, Acinetobacter baumannii; conditions: for MIC: Acinetobacter baumannii
Description: (§1) The antibacterial activities of the synthesized fluoroquinolones were evaluated against a panel of Gram-negative pathogens including K. pneumoniae (NCTC 13368, M6), Acinetobacter baumannii (AYE, ATCC 17978), Pseudomonas aeruginosa (PAO1, NCTC 13437), and Escherichia coli (NCTC 12923, LEC001). The ability of molecules to permeate the Gram-negative outer membrane was investigated by adding membrane permeabilizer polymyxin B nonapeptide (PMBN) at sub-inhibitory concentrations (Table 2). Phenylalanine–arginine β-naphthylamide (PAβN) was used to investigate efflux of compounds by resistance–nodulation–division (RND)-family efflux pumps (Table 3).
(§2) Minimal inhibitory concentrations (MICs) were determined using the microdilution broth method. Briefly, compounds were added to the first two columns of a 96-well plate and diluted two-fold down the plate in tryptic soy broth. Overnight cultures of bacteria were then adjusted to a concentration of 1 × 10^6 CFU/mL and added to each well for a final concentration of 5 × 10^5 CFU/mL.

P. aeruginosa PAO1 = experiment: MIC, microdilution broth method; assay type: cell-based, Pseudomonas aeruginosa; conditions: for potentiation of MIC by PMBN: MIC –PMBN vs +PMBN; for MIC: Pseudomonas aeruginosa, ciprofloxacin-sensitive strain (S)
P. aeruginosa NCTC 13437 = experiment: MIC, microdilution broth method; assay type: cell-based, Pseudomonas aeruginosa; conditions: Pseudomonas aeruginosa
Description: as §1, §2

E. coli NCTC 12923 = experiment: MIC, microdilution broth method; assay type: cell-based, Escherichia coli; conditions: for MIC: Escherichia coli, ciprofloxacin-sensitive strain (S)
E. coli LEC001 = experiment: MIC, microdilution broth method; assay type: cell-based, Escherichia coli; conditions: for MIC: Escherichia coli
Description: as §1, §2

K. pneumoniae NCTC 13368 = experiment: MIC, microdilution broth method; assay type: cell-based, Klebsiella pneumoniae; conditions: for MIC: Klebsiella pneumoniae, ciprofloxacin-resistant strain (R)
Description: as §1, §2

[1] = tested on: panel of Gram-negative pathogens; experiment: MIC panel, statements across strains; assay type: cell-based, K. pneumoniae, A. baumannii, P. aeruginosa, E. coli; conditions: versus ciprofloxacin
Description: as §1, §2

[2] = PAβN, text names A. baumannii only
[3] = +PMBN (30 μg/mL), ciprofloxacin-resistant strain (R)
[4] = –PMBN, ciprofloxacin-resistant strain (R)
[5] = NCTC13437, +PMBN (30 μg/mL), ciprofloxacin-resistant strain (R)
[6] = NCTC13437, –PMBN, ciprofloxacin-resistant strain (R)
[7] = LEC001, +PMBN (30 μg/mL), ciprofloxacin-resistant strain (R)
[8] = LEC001, –PMBN, ciprofloxacin-resistant strain (R)

Row | potentiation of MIC by PMBN (K. pneumoniae M6) [fold] | MIC (A. baumannii ATCC 17978; ATCC17978, +PMBN (30 μg/mL)) [µg/mL] | MIC (A. baumannii ATCC 17978; ATCC17978, –PMBN) [µg/mL] | potentiation of MIC by PMBN (A. baumannii ATCC 17978) | MIC (A. baumannii AYE; [3]) [µg/mL] | MIC (A. baumannii AYE; [4]) [µg/mL] | potentiation of MIC by PMBN (P. aeruginosa PAO1) | MIC (P. aeruginosa NCTC 13437; [5]) [µg/mL] | MIC (P. aeruginosa NCTC 13437; [6]) [µg/mL] | MIC (E. coli NCTC 12923; NCTC12923, +PMBN (30 μg/mL)) [µg/mL] | MIC (E. coli NCTC 12923; NCTC12923, –PMBN) [µg/mL] | MIC (E. coli LEC001; [7]) [µg/mL] | MIC (E. coli LEC001; [8]) [µg/mL] | MIC (K. pneumoniae M6; M6, +PMBN (30 μg/mL)) [µg/mL] | MIC (K. pneumoniae M6; M6, –PMBN) [µg/mL] | MIC (K. pneumoniae NCTC 13368; NCTC13368, +PMBN (30 μg/mL)) [µg/mL] | MIC (K. pneumoniae NCTC 13368; NCTC13368, –PMBN) [µg/mL] | MIC (P. aeruginosa PAO1; PAO1, +PMBN (30 μg/mL)) [µg/mL] | MIC (P. aeruginosa PAO1; PAO1, –PMBN) [µg/mL] | SMILES | further results
1 | 1 | 0.5 (≈ 1.51 µM) | 0.5 (≈ 1.51 µM) | 1–2 fold | > 32 | > 32 | 4–16 fold | 16 (≈ 48.3 µM) | > 32 | 0.03 to 0.06 (≈ 0.0905 to 0.181 µM) | ≤ 0.03 | 32 (≈ 96.6 µM) | 16 (≈ 48.3 µM) | – | – | – | – | – | – | O=C(O)c1cn(C2CC2)c2cc(N3CCNCC3)c(F)cc2c1=O [Compound 6a, ciprofloxacin, reference compound] | effect of PAβN on MIC (K. pneumoniae M6; RND-family efflux inhibitor PAβN): not evident; effect of PAβN on MIC (A. baumannii ATCC 17978; [2]): Neither ciprofloxacin nor compound 6e showed any difference in MIC; MIC (A. baumannii AYE; +PAβN (25 μg/mL), Table 3, strain R): > 32 µg/mL; MIC (A. baumannii AYE; –PAβN, Table 3, strain R): 32 µg/mL (≈ 96.6 µM); effect of PAβN on MIC (A. baumannii AYE; [2]): Neither ciprofloxacin nor compound 6e showed any difference in MIC; MIC (P. aeruginosa NCTC 13437; NCTC13437, +PAβN (25 μg/mL), Table 3, strain R): 16 µg/mL (≈ 48.3 µM); MIC (P. aeruginosa NCTC 13437; NCTC13437, –PAβN, Table 3, strain R): 32 µg/mL (≈ 96.6 µM); effect of PAβN on MIC (E. coli NCTC 12923; PAβN, text names E. coli only): No effect; MIC (E. coli LEC001; LEC001, +PAβN (25 μg/mL), Table 3, strain R): 32 µg/mL (≈ 96.6 µM); MIC (E. coli LEC001; LEC001, –PAβN, Table 3, strain R): 16 µg/mL (≈ 48.3 µM); effect of PAβN on MIC (E. coli LEC001; PAβN, text names E. coli only): No effect
2 | 1 | 4 (≈ 12.5 µM) | 8 (≈ 25.1 µM) | 1–2 fold | > 32 | > 32 | 4–16 fold | 32 (≈ 100 µM) | > 32 | 0.125 (≈ 0.391 µM) | 0.125 (≈ 0.391 µM) | > 32 | > 32 | 0.5 (≈ 1.57 µM) | 0.25 to 0.5 (≈ 0.783 to 1.57 µM) | 2 (≈ 6.26 µM) | 4 (≈ 12.5 µM) | 0.5 (≈ 1.57 µM) | 2 to 4 (≈ 6.26 to 12.5 µM) | CCn1cc(C(=O)O)c(=O)c2cc(F)c(N3CCNCC3)cc21 [Compound 6b, norfloxacin, reference compound] | potentiation of MIC by PMBN (K. pneumoniae NCTC 13368; MIC –PMBN vs +PMBN): 2 fold
3 | – | 4 (≈ 10.5 µM) | 4 to 8 (≈ 10.5 to 21 µM) | – | > 32 | > 32 | – | 32 (≈ 83.9 µM) | > 32 | 0.5 (≈ 1.31 µM) | 1 to 2 (≈ 2.62 to 5.24 µM) | > 32 | > 32 | 1 (≈ 2.62 µM) | 1 (≈ 2.62 µM) | 4 (≈ 10.5 µM) | 16 (≈ 41.9 µM) | 0.5 (≈ 1.31 µM) | 8 (≈ 21 µM) | O=C(O)c1cn(Cc2ccccc2)c2cc(N3CCNCC3)c(F)cc2c1=O [Compound 6c] | antibacterial activity [1]: limited activity
